The assay has as its system clotting of a test sample, such as whole blood. Kind of assay: low tissue factor clotting assay with a reagent of diluted tissue factor, CaCl2 and polycation heparin inhibitor (polybrene). As to conditions: for relationship between TTC and concentration in the sample: range shown between 0 and 500 ng/mL, TTC in seconds; for relationship between TTC and concentration in the sample / concentration in the test sample at a measured clotting time of 400 seconds: FIG. 2 / FIG. 3; for concentration in the test sample at a measured clotting time of 400 seconds: read from plot of TTC versus concentration; for plot of TTC versus concentration with 1 IU UFH or 0 IU UFH in the test sample: test sample with 1 IU unfractionated heparin or no heparin, region 400 / 500 of FIG. 4 / FIG. 5. It is filed as biochemical. The source says: The clotting assay uses a reagent to initiate the clotting of a test sample, such as whole blood or a sample derived from whole blood (e.g., plasma). A low tissue factor assay is an example of a clotting assay. […] The low tissue factor assay monitors the clotting of a mixture of the test sample and the reagent and determines clotting parameters based on that clotting. The TTC parameters can be different on different clinical analyzer systems and for different low tissue factor assays. For example, TTC parameter(s) for low tissue factor assays performed using the ROTEM® sigma and the RQTEM® delta systems by Werfen® include clotting time (CT) (where CT is the latency time from adding reagent to sample until the clot starts to form); TTC parameter(s) for low tissue factor assays performed using the TEG® 6s system by Haemonetics® include reaction time (R) and clotting time (CT); and TTC parameter(s) for low tissue factor assays performed using the Quanta® system by the Hemoscnics® system include dot time (CT). An example of the reagent that may be used in the low tissue factor assay (referred to below as “the assay”) to initiate clotting of the test sample includes the following constituents: a diluted tissue factor (“the tissue factor”), calcium chloride (CaCl2), and a heparin inhibitor. The tissue factor activates the extrinsic pathway; the heparin inhibitor reduces or eliminates the sensitivity of the assay to heparin or at least certain concentrations of heparin in the test sample; and CaCl2 recalcifies the sample as required for blood clotting to occur. An example of a type of heparin inhibitor that may be used in the reagent is polycation. An example of a polycation that may be used in the reagent includes, but is not limited to, polybrene. […] In this example, process 100 includes receiving (100a) a test sample having an unknown anti-Xa DOAC at an unknown concentration. The test sample may be received in a diagnostic testing/clinical analyzer system or a manual testing system. The test sample may be any of the types of test samples described herein. The system performs a low tissue factor assay on the test sample. This includes causing the test sample to contact a reagent such as the example reagents described herein. The test sample mixes (100b) with the reagent. The mixing may be performed automatically or manually by physically moving the test sample and the reagent using a mixing element mechanism, e.g., agitation, flow, or the like. The resulting liquid, which is a mixture of the sample and the reagent, begins to clot. The clotting parameters(s), such as TTC, CFT, and/or amplitudes, of clots formed from the liquid may be measured (100c) by the diagnostic testing/clinical analyzer system or manually. The plots of FIGS. 4 to 6, which are described below, are associated with various experiments using the low tissue factor assay and the example reagents described herein containing the tissue factor, CaCl2, and a heparin inhibitor, such as polybrene or other polycation.

Molecules are shown by their SMILES.

Regarding `O=C(NC[C@H]1CN(c2ccc(N3CCOCC3=O)cc2)C(=O)O1)c1ccc(Cl)s1` [rivaroxaban], the “relationship between TTC and concentration in the sample” value is listed as “linear”; the “concentration in the test sample at a measured clotting time of 400 seconds” value was “about 50 ng/mL”; the “plot of TTC versus concentration with 1 IU UFH or 0 IU UFH in the test sample” value is reported as “substantially linear”.
For `COc1ccc(-n2nc(C(N)=O)c3c2C(=O)N(c2ccc(N4CCCCC4=O)cc2)CC3)cc1` [apixaban], in that order: “linear”, “about 160 ng/mL” and “substantially linear”.

Source of the values: patent US20230243856A1, “IDENTIFYING DIRECT ORAL FACTOR XA INHIBITORS” (Instrumentation Laboratory Company, priority 2022, published 2023).
